# Measured values from patent US20240279710A1, “FLUORESCENT PROBES” (TOHOKU TECHNO ARCH CO., LTD., priority 2021, published 2024).
# How the values were obtained:
# [1] = biological target: T1, calpain-1 from human erythrocytes (Homo sapiens, UniProt P07384); test: Reactivity with calpain-1: absorption/fluorescence spectra and HPLC; format: biochemical; settings: 5 μM probe, calpain-1 100 units
# T1 construct: calpain-1 from human erythrocytes; purchased Merck Millipore 208713; host or cells: human erythrocytes (natural source)
# T1 sequence (P07384 1-714): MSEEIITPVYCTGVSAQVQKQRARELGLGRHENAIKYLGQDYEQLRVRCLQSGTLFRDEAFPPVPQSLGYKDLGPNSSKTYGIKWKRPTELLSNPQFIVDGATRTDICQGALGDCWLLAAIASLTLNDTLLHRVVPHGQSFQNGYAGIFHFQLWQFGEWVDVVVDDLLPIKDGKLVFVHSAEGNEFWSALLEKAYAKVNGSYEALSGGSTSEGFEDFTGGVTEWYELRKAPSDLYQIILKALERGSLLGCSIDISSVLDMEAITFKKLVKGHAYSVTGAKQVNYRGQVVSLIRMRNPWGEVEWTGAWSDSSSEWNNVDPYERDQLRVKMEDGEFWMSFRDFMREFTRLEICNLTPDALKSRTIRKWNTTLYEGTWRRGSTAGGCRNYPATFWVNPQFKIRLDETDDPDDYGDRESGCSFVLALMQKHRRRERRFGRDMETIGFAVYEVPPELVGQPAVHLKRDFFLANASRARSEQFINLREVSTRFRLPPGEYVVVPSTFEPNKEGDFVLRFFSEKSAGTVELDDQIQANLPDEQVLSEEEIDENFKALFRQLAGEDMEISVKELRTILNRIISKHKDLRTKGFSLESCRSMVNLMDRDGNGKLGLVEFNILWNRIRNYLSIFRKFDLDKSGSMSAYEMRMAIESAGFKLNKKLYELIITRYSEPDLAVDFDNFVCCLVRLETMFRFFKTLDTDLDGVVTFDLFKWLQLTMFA
# T1 sequence (P04632 1-268 partner): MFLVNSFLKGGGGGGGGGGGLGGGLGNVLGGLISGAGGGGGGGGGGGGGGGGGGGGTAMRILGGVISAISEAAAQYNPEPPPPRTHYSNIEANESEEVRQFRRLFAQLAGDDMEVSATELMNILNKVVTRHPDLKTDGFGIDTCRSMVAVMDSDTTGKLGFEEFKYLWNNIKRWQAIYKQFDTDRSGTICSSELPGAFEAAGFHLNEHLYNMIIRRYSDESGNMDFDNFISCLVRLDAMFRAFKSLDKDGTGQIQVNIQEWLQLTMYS
# Protocol: Calpain-1 was caused to act on Compound 19, and changes in absorption spectrum and fluorescence spectrum thereof were measured. Specifically, a solution (0.5 mM) of Compound 19 in DMSO and calpain-1 (100 units) (calpain-1 from human erythrocytes, Cat. No. 208713, Merck Millipore, the same holds true for the following) were added to a 50 mM TRIS buffer (pH: 7.4, 5 mM CaCl2, 100 mM NaCl, 1 mM EGTA) to produce 2 mL of a reaction solution (final probe concentration: 5 μM). An enzyme reaction was performed at 37° C. The fluorescence spectrum of the reaction solution was measured at an excitation wavelength of 490 nm. In addition, the reaction solution was analyzed by HPLC chromatography. Compound 19 to which calpain-1 was not added (final concentration: 5 μM) was used as a control.
# [2] = biological target: T1, calpain-1 from human erythrocytes; test: Fluorescence assay with calpain-1; format: biochemical; settings: 10 μM probe, 17.4 U/mL calpain-1, 5 mM CaCl2, 37° C., FIG. 4
# Protocol: The fluorescence assays of Compound 19 and Compound 16 with time were performed. Specifically, 17.4 U/mL of calpain-1 and 5 mM CaCl2 were added to a 50 mM TRIS buffer (pH: 7.4, 2 mM EGTA, 2 mM DTE) containing 10 μM of each of the synthesized fluorescent probes to perform an enzyme reaction at 37° C. Each of the compounds to which calpain-1 and CaCl2 were not added was similarly subjected as a negative control to the measurement.
# The fluorescence assays of Compounds 16 to 36 were similarly performed. 50 Units per milliliter (Compounds 16 and 19 to 25) or 17.4 U/mL (Compounds 16 to 18 and 26 to 36) of calpain-1 and 5 mM CaCl2 were added to a 50 mM TRIS buffer (pH: 7.4, 2 mM EGTA, 2 mM DTE) containing 10 μM of each of the synthesized fluorescent probes to perform an enzyme reaction at 37° C.
# Next, similar fluorescence assays of Compounds 37, 42, 45, 48, 51, 53, 55, 57, and 59 with calpain-1 were performed. Specifically, 17.4 U/mL of calpain-1 and 5 mM CaCl2 were added to a 50 mM TRIS buffer (pH: 7.4, 2 mM EGTA, 2 mM DTE) containing 10 μM of each of the synthesized fluorescent probes to perform an enzyme reaction at 37° C. Each of the compounds to which calpain-1 was not added was used as a control.
# To evaluate an influence of a R^12-L-O— group on the reactivity of each of compounds having the same amino acids with calpain-1, the fluorescence assays of Compounds 37 to 66 with calpain-1 were performed in accordance with the above-mentioned method. Specifically, 17.4 U/mL of calpain-1 and 5 mM CaCl2 were added to a 50 mM TRIS buffer (pH: 7.4, 2 mM EGTA, 2 mM DTE) containing 10 μM of each of the synthesized fluorescent probes to perform an enzyme reaction at 37° C., followed by the measurement of an increase in fluorescence intensity of each of the compounds 10 minutes after the addition of calpain-1.
# calpain = test: Rat NMDA injury model, ocular fundus imaging; format: in vivo; settings: for staining of nerve cells with HMRG in ocular fundus: probe 18.3 μM, 20 minutes after administration; for number of HMRG-positive cells in ocular fundus: FIG. 16
# Protocol: Black Brown-Norway rats were each subjected to general anesthesia with isoflurane. PBS or N-methyl-D-aspartate (NMDA) (10 mM, 2 μL) was administered into an eye of the rat. 6 Hours after that, the rat was anesthetized with a mixed liquid of ketamine and xylazine again, and Compound 19 (18.3 μM, 3 μL) was administered into the eye. Images of an ocular fundus were taken with F-10 (a confocal biomicroscope manufactured by Nidek Co., Ltd.) before the administration of Compound 19 and 20 minutes after the administration.
smiles,measurement,setting,value
COCC(=O)N[C@@H](CC(C)C)C(=O)N[C@@H](CCSC)C(=O)Nc1ccc2c(c1)Oc1cc(N)ccc1C21OCc2ccccc21 (some centres unmarked) [Compound 19],changes in absorption spectrum and fluorescence spectrum by addition of calpain-1,"[1]; 50 mM TRIS pH 7.4, 5 mM CaCl2, 37° C., excitation 490 nm",increases in absorbance and fluorescence intensity
same,change in HPLC chromatogram by addition of calpain-1 (reaction product),[1]; 37° C.,produced HMRG serving as a fluorescent substance
same,change in fluorescence intensity with time by calpain-1,"[2]; excitation 475 nm, fluorescence 500-550 nm",functioned as a fluorescent probe for calpain-1
same,reactivity with calpain-1 compared with Compound 16 (fluorescence with time),[2],further improved in reactivity with calpain-1
same,staining of nerve cells with HMRG in ocular fundus,"calpain; rats administered NMDA (10 mM, 2 μL), 3 μL into the eye 6 hours later",many of the nerve cells were clearly stained
same,number of HMRG-positive cells in ocular fundus,calpain; rats administered NMDA,significant increase
same,number of HMRG-positive cells in ocular fundus,calpain; rats administered PBS,extremely small
same,staining of nerve cells with HMRG in ocular fundus,"calpain; rats administered PBS, 3 μL into the eye",substantially no nerve cells are stained
